Results: ChEMBL document CHEMBL3259742, “Design and synthesis of triazolopyrimidine acylsulfonamides as novel anti-mycobacterial leads acting through inhibition of acetohydroxyacid synthase” (Bioorg Med Chem Lett, 2014)
Converted amounts (≈) assume the structure as drawn.

What was measured:
[1] = test system: Mycobacterium tuberculosis; assay: Antimycobacterial activity against Mycobacterium tuberculosis H37Rv ATCC 27294 after 7 days by resazurin assay in presence of Isoleucine, Leucine and Valine; assay type: functional; settings: H37Rv ATCC 27294, 168 h
[2] = Inhibition of Mycobacterium tuberculosis acetohydroxy acid synthase after 60 mins by acetoin formation-based colorimetry
[3] = test system: Mycobacterium tuberculosis; assay: Antimycobacterial activity against Mycobacterium tuberculosis H37Rv ATCC 27294 after 7 days by resazurin assay; assay type: functional; settings: H37Rv ATCC 27294, 168 h

Compound: Cc1cc(C)n2nc(C(=O)NS(=O)(=O)c3c(C)cccc3OC(F)(F)F)nc2n1
- MIC [1]: > 32 µg/mL
- pIC50 [2]: 7.75
- MIC [3]: ≤ 0.03 µg/mL

Compound: Cc1cc(C)n2nc(C(=O)NS(=O)(=O)c3cccc(OC(F)(F)F)c3)nc2n1
- pIC50 [2]: 5.6
- MIC [3]: 16 µg/mL (≈ 38.5 µM)

Compound: Cc1cc(C)n2nc(C(=O)NS(=O)(=O)c3ccccc3OC(F)F)nc2n1
- MIC [1]: > 32 µg/mL
- pIC50 [2]: > 7.2
- MIC [3]: < 0.25 µg/mL

Compound: Cc1cc(C)n2nc(C(=O)NS(=O)(=O)c3ccccc3F)nc2n1
- MIC [1]: > 32 µg/mL
- pIC50 [2]: 5.24
- MIC [3]: > 32 µg/mL

Compound: Cc1cc(C)n2nc(C(=O)NS(=O)(=O)c3cccc(Br)c3)nc2n1
- pIC50 [2]: 5.31
- MIC [3]: 32 µg/mL (≈ 78 µM)

Compound: COC(=O)c1ccccc1S(=O)(=O)NC(=O)Nc1nc(C)cc(C)n1 [SULFOMETURON METHYL]
- MIC [1]: > 32 µg/mL
- pIC50 [2]: 6.12
- MIC [3]: 16 µg/mL (≈ 43.9 µM)

Compound: Cc1cc(C)n2nc(C(=O)NS(=O)(=O)c3ccc(OC(F)(F)F)cc3)nc2n1
- pIC50 [2]: < 4.52
- MIC [3]: > 32 µg/mL

Compound: COC(=O)c1ccccc1S(=O)(=O)NC(=O)c1nc2nc(C)cc(C)n2n1
- MIC [1]: > 32 µg/mL
- pIC50 [2]: 7.15
- MIC [3]: 0.25 µg/mL (≈ 0.642 µM)

Compound: Cc1cc(C)n2nc(C(=O)NS(=O)(=O)c3ccccc3C(F)(F)F)nc2n1
- MIC [1]: > 32 µg/mL
- pIC50 [2]: 6.98
- MIC [3]: ≤ 0.13 µg/mL

Compound: Cc1cc(C)n2nc(C(=O)NS(=O)(=O)c3ccccc3Br)nc2n1
- MIC [1]: > 32 µg/mL
- pIC50 [2]: 7.04
- MIC [3]: 0.25 µg/mL (≈ 0.609 µM)

Compound: Cc1cc(C)n2nc(C(=O)NS(=O)(=O)c3cccc(C(F)(F)F)c3)nc2n1
- pIC50 [2]: 5.36
- MIC [3]: 16 µg/mL (≈ 40.1 µM)

Compound: Cc1cc(C)n2nc(C(=O)NS(=O)(=O)c3ccccc3CC#N)nc2n1
- pIC50 [2]: 6.59
- MIC [3]: 32 µg/mL (≈ 86.4 µM)

Compound: COc1ccccc1S(=O)(=O)NC(=O)c1nc2nc(C)cc(C)n2n1
- MIC [1]: > 32 µg/mL
- pIC50 [2]: 5.81
- MIC [3]: 0.5 µg/mL (≈ 1.38 µM)

Compound: Cc1cc(C)n2nc(C(=O)NS(=O)(=O)c3ccccc3OC(F)(F)F)nc2n1
- MIC [1]: > 32 µg/mL
- pIC50 [2]: 7.6
- MIC [3]: 0.03 µg/mL (≈ 0.0722 µM)

Compound: Cc1cc(C)n2nc(C(=O)NS(=O)(=O)c3c(C)cccc3C)nc2n1
- MIC [1]: > 32 µg/mL
- pIC50 [2]: 6.54
- MIC [3]: 0.5 µg/mL (≈ 1.39 µM)

Compound: Cc1cc(C)n2nc(C(=O)NS(=O)(=O)c3ccccc3C)nc2n1
- MIC [1]: > 32 µg/mL
- pIC50 [2]: 6.29
- MIC [3]: 1 µg/mL (≈ 2.9 µM)

Compound: Cc1cc(C)n2nc(C(=O)NS(=O)(=O)c3ccccc3Cl)nc2n1
- MIC [1]: > 32 µg/mL
- pIC50 [2]: 6.82
- MIC [3]: 2 µg/mL (≈ 5.47 µM)

Compound: Cc1cc(C)n2nc(C(=O)NS(=O)(=O)c3ccc(C(F)(F)F)cc3)nc2n1
- pIC50 [2]: < 4.52
- MIC [3]: > 32 µg/mL

Compound: Cc1cc(C)n2nc(C(=O)NS(=O)(=O)c3c(C)cccc3Cl)nc2n1
- MIC [1]: > 32 µg/mL
- pIC50 [2]: 6.7
- MIC [3]: 0.25 µg/mL (≈ 0.658 µM)
